Assay results: ChEMBL document CHEMBL5465560, “Selectivity Literature for EUbOPEN Chemogenomic Library” (2024)
Changes are numbered by the printed parent chain.

Assays:
Type in all cases: cell-based
Conditions in all cases: at 1 µM
[1] = test system: T1, Receptor-type tyrosine-protein kinase FLT3 (Homo sapiens), P36888 [K663Q]; experiment: (§1) Selectivity interaction (Ambit KINOMEscan and KiNATiv profiling in Jurkat cells) EUB0000090b FLT3
T1 sequence (whole entry): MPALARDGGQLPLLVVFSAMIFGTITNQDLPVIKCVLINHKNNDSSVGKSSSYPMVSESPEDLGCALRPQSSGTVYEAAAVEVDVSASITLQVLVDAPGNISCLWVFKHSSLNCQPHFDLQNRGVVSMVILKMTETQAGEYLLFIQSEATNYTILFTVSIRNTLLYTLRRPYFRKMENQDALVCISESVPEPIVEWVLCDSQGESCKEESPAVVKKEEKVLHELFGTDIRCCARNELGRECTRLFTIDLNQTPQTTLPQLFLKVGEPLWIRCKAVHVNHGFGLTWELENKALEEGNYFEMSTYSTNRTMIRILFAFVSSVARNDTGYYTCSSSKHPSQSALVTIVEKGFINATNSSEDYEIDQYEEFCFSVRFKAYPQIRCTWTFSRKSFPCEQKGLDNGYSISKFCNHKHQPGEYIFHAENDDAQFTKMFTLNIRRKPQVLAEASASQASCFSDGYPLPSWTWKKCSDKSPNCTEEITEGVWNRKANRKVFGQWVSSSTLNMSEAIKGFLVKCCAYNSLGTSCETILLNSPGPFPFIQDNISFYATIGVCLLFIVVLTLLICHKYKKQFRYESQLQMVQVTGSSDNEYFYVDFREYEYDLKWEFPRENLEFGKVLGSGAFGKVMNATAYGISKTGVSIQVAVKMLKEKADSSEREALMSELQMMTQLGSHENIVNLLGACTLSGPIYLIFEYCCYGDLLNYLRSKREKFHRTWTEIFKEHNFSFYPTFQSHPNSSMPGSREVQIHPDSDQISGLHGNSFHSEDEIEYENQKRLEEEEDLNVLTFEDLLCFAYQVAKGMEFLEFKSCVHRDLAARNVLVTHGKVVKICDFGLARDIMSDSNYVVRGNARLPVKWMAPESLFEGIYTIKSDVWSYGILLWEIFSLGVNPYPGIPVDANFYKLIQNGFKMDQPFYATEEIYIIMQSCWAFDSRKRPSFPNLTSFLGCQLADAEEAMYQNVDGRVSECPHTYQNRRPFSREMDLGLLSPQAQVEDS

[2] = test system: Receptor-type tyrosine-protein kinase FLT3 (Homo sapiens), P36888 [UNDEFINED MUTATION]; experiment: as §1
[3] = test system: T2, Receptor-type tyrosine-protein kinase FLT3 (Homo sapiens), P36888 [N841I]; experiment: as §1
T2 sequence (whole entry): T1 sequence (whole entry) with Q663K, N841I

[4] = test system: T3, Receptor-type tyrosine-protein kinase FLT3 (Homo sapiens), P36888 [D835Y]; experiment: as §1
T3 sequence (whole entry): T1 sequence (whole entry) with Q663K, D835Y

CN(C)C/C=C/C(=O)Nc1ccc(C(=O)N2CCCC(Nc3ncc(Cl)c(-c4c[nH]c5ccccc45)n3)C2)cc1 (centres undefined)
% of control [1]: 84% | % of control [2]: 86% | % of control [3]: 89% | % of control [4]: 76%
